Assay results from PMC2902711 (Toxicon : official journal of the International Society on …, 2010).
Read-outs that look alike come from different tables or passages of the source.

Columns and labels:
[1] = system: RTA; conditions: read-out: IC50 for RTA; cited from earlier work
[2] = system: Vero cells; conditions: for concentrations at which the compound was itself cytotoxic: African green monkey
[3] = target: Shiga toxin type 1 subunit A (StxA1) (Bacteriophage H30, UniProt P10149); assay: biochemical; format: biochemical, Escherichia coli
Shiga toxin type 1 subunit A (StxA1), sequence (P10149 23-273 limits assumed): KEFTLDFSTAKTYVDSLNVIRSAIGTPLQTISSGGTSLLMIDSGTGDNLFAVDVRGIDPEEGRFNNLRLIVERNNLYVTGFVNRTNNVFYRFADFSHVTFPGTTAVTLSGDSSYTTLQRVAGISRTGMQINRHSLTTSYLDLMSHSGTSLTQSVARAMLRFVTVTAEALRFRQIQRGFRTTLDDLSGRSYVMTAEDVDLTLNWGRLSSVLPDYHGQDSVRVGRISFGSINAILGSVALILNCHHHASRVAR

SMILES	IC50 [1] [µM]	concentrations at which the compound was itself cytotoxic [2]	other results
Cc1nc2c(=O)[nH]c(N)nc2o1 [8-methyl-9-oxaguanine]	~400	–	–
Cc1ccc(/C=C/C(=O)NC2CCCc3ccccc32)o1 (stereo not drawn) [Compound 1, (E)-3-(5-methylfuran-2-yl)-N-(1,2,3,4-tetrahydronaphthalen-1-yl)prop-2-enamide]	–	–	cytotoxicity of the compound itself [2]: did not exhibit significant cytotoxicity; IC50 [3]: ~700 µM
CC(C)Nc1nc(C#N)nc(NC(C)C)n1 [Compound 2, 4,6-bis(propan-2-ylamino)-1,3,5-triazine-2-carbonitrile]	–	–	cytotoxicity of the compound itself [2]: moderately cytotoxic
COC(=O)C(C)N1C(=O)S/C(=C/c2ccc(N3CCCCCC3)o2)C1=O (stereo not drawn) [Compound 3, methyl 2-[(5E)-5-[[5-(azepan-1-yl)furan-2-yl]methylidene]-2,4-dioxo-1,3-thiazolidin-3-yl]propanoate]	–	less than 20 μM	–
CS(=O)(=O)c1nc2ccccc2n1Cc1cccc2ccccc12 [Compound 4, 2-methylsulfonyl-1-(naphthalen-1-ylmethyl)benzimidazole]	–	> 30 µM	–
O=C(OCc1ccc(F)cc1)c1cc(-c2ccco2)nc2ccccc12 [Compound 8, 4-fluorophenyl methyl 2-(furan-2-yl)quinoline-4-carboxylate]	–	–	IC50 ([3]; read-out: StxA1 IC50): 40 µM; IC50 ([3]; read-out: apparent IC50 for StxA1): ~40 µM
O=C(CSc1nnc[nH]1)N(Cc1ccc(F)cc1)C1CCCCC1 [Compound C17-1, N-cyclohexyl-N-[(4-fluorophenyl)methyl]-2-(4H-1,2,4-triazol-3-ylsulfanyl)acetamide]	–	> 100 µM	IC50 [3]: 500 µM
Nc1cc(O)c(N)c(O)n1 [DDP, 2,5-diamino-4-6-dihydroxypyridine]	2200	–	–
Nc1nc2ncc(CNc3ccc(C(=O)O)cc3)nc2c(=O)[nH]1 [pteroic acid (PTA), pteroic acid]	~600	–	–
